Results as given in patent publication US20240197938A1, “ANTIMICROBIAL COMPOUNDS BASED ON GLUCOHEPTONIC ACIDS AND THEIR SALTS” (HARCROS CHEMICALS, INC., priority 2021, published 2024).

What was measured:
[1] = Bubble pressure tensiometry (dynamic surface tension, calculated CMC); format: physicochemical; conditions: for Calculated CMC: bubble tensiometry
Description: Dynamic surface tensions of certain formulations were measured using a KRÜSS BP100 BPT Mobile bubble pressure tensiometer. Samples of the solution of Example 7 were tested by adding the test solution to a glass dish and lowering the disposable capillary tip and temperature probe into the solution. The dynamic setting was selected, and the instrument was set to collect 30 data points, the bubble age increasing from about 10 ms to about 30,000 ms.
Bubble tensiometry was used to calculate the Critical Micelle Concentration (CMC) value for each of the solutions.
FIG. 1 presents a comparison of the bubble age to surface tension for RM14A at CMC, sub-CMC, and super-CMC concentrations. FIG. 2 presents a comparison of the bubble age to surface tension for RM14B at CMC, sub-CMC, and super-CMC concentrations. FIG. 3 presents a comparison of the bubble age to surface tension for RM14C at CMC, sub-CMC, and super-CMC concentrations. FIG. 4 presents a comparison of the bubble age to surface tension for RM12A, RM13A, RM14A, and RM15A at super-CMC concentrations. FIG. 5 presents a comparison of the bubble age to surface tension for RM12A, RM13A, RM14A, and RM15A at CMC concentrations. FIG. 6 presents a comparison of the bubble age to surface tension for RM12A, RM13A, RM14A, and RM15A at CMC concentrations. FIG. 7 presents a comparison of bubble age to surface tension for RM12A, RM13A, RM14A, and RM15A at sub-CMC concentrations.

[2] = Conductivity testing (calculated CMC); format: physicochemical; conditions: for Calculated CMC, All Points: all data points; for Calculated CMC, Average: average of outer, inner, all points; for Calculated CMC, Inner Points: inner data points; for Calculated CMC, Outer Points: outer data points
Description: Conductivities were measured using a VWR 23609-216 Pure H2O Tester conductivity meter. The meter probe was submerged into the test solution and swirled gently. Once the meter settled, the value was recorded.
The conductivity of the solutions of Example 7 were tested at dilutions ranging from 0.1 M to 0.001 M. The data was plotted on a logarithmic scale and analyzed in the style of Heard and Ashworth. For each sample, three graphs were reported and fitted with a trend curve: outer data points, inner data points, all data points. […] An average CMC value was determined from the three trend samples (outer data points, inner data points, all data points) in order to more accuracy predict the CMC value.
LINEST was utilized to determine the slope and intercept for each line, and a combination of INTERCEPT and SLOPE was used to determine the intersection of the two fitted lines. The Critical Micelle Concentration (CMC) was determined for each of these plots by the intercept of the two lines. Set forth below in Table 5 is the calculated CMC for each graph and the average CMC.

Escherichia coli = experiment: ASTM E2315-16 Time-Kill Procedure; format: cell-based; conditions: for Log Reduction: 30 seconds; for log reduction: 10 minutes
Description: (§1) Select compounds were tested for antimicrobial activity using ASTM method […]-16 (Standard Guide for Assessment of Antimicrobial Activity using a Time-Kill Procedure). Six microbes were tested: Candida albicans, Staphylococcus aureus, Staphylococcus epidermidis. Escherichia coli, Salmonella abony, and Listeria monocytogenes. Four chlorhexidine salts were tested: chlorhexidine di-α-glucoheptonate (Sample G), chlorhexidine di-β73-glucoheptonate (Sample H), chlorhexidine digluconate (Sample I), and chlorhexidine diacetate (Sample P). Both chlorhexidine diglucoheptonate salts were prepared at a 2:1 molar ratio of glucoheptonic acid to chlorhexidine. Dilutions of each salt were prepared using sterile water (20-30 ppm hardness), to achieve the desired wt. % concentration. Benzalkonium salts were also tested using the same procedure as set forth in Example 13. The samples were benzalkonium chloride (C12-C16) (Sample C), benzalkonium chloride (C12-C14) (Sample D), benzalkonium chloride in combination with a stoichiometric amount of α-glucoheptonate (Sample F), and benzalkonium chloride in combination with a molar excess of α-glucoheptonate (Sample N). Sample F was prepared by mixing and extensively heating a stoichiometric quantity (1:1) of sodium α-glucoheptonate with benzalkonium chloride, typified by the C12-14 alkyl chain. Sample N was prepared by simply blending benzalkonium chloride, typified by the C12-16 chain, with a molar excess of sodium α-glucoheptonate (1.6:1). Both Samples F and N contain sodium chloride.

Salmonella abony = experiment: ASTM E2315-16 Time-Kill Procedure; format: cell-based; conditions: for Log Reduction: 30 seconds; for log reduction: 10 minutes
Description: as §1

Listeria monocytogenes = experiment: ASTM E2315-16 Time-Kill Procedure; format: cell-based; conditions: for Log Reduction: 30 seconds; for log reduction: 10 minutes
Description: as §1

Candida albicans = experiment: ASTM E2315-16 Time-Kill Procedure; format: cell-based; conditions: for Log Reduction: 30 seconds; for log reduction: 10 minutes
Description: as §1, with “concentration. Two glucoheptonic acids were evaluated for antimicrobial activity against the same six microbes as Example 13. Sample L was α-glucoheptonic acid. Sample M was β73-glucoheptonic acid.” for “concentration.”

Staphylococcus aureus = experiment: ASTM E2315-16 Time-Kill Procedure; format: cell-based; conditions: for Log Reduction: 30 seconds; for log reduction: 10 minutes
Description: as §1, with “concentration. Two glucoheptonic acids were evaluated for antimicrobial activity against the same six microbes as Example 13. Sample L was α-glucoheptonic acid. Sample M was β73-glucoheptonic acid.” for “concentration.”

[3] = system: Staphylococcus epidermidis; experiment: ASTM E2315-16 Time-Kill Procedure; format: cell-based; conditions: for Log Reduction: 30 seconds; for log reduction: 10 minutes
Description: as §1, with “concentration. Two glucoheptonic acids were evaluated for antimicrobial activity against the same six microbes as Example 13. Sample L was α-glucoheptonic acid. Sample M was β73-glucoheptonic acid.” for “concentration.”

[4] = system: all microbes (Candida albicans, Staphylococcus aureus, Staphylococcus epidermidis, Escherichia coli, Salmonella abony, Listeria monocytogenes); experiment: ASTM E2315-16 Time-Kill Procedure, average across all microbes; format: cell-based; conditions: for Log Reduction, Average, all microbes: 30 seconds; for log reduction, Average, all microbes: 10 minutes
Description: as §1, with “concentration. Samples G, H, I, and P were also tested at a concentration of 0.60 wt % active and evaluated for the average Log Reduction in microbial population at 10 minutes, across all microbes. A further test was conducted at a concentration of 1.0 wt % active and evaluated for the average Log Reduction in microbial population at 10 minutes, across all microbes.” for “concentration.”, “chloride. A further antimicrobial test was conducted to determine the log reduction at 10 minutes. Samples C, D, F, and N are as defined above.” for “chloride.”

N=C(NCCCCCCNC(=N)NC(=N)Nc1ccc(Cl)cc1)NC(=N)Nc1ccc(Cl)cc1.O=C(O)C(O)C(O)C(O)C(O)C(O)CO.O=C(O)C(O)C(O)C(O)C(O)C(O)CO [RM15, chlorhexidine di-β81-glucoheptonate]
surface tension versus bubble age (rate and magnitude of reduction) ([1]; sub-CMC, CMC and super-CMC concentrations, FIGS. 1-7): fall more rapidly and to a lower value than either the di-α-glucoheptonate or the comparative digluconate salt

N=C(NCCCCCCNC(=N)NC(=N)Nc1ccc(Cl)cc1)NC(=N)Nc1ccc(Cl)cc1.O=C(O)C(O)C(O)C(O)C(O)C(O)CO.O=C(O)C(O)C(O)C(O)C(O)C(O)CO [RM14C, Chlorhexidine di-β73-glucoheptonate]
Calculated CMC, All Points [2]: 0.0131 M | Calculated CMC, Average [2]: 0.0133 M | Calculated CMC, Inner Points [2]: 0.0156 M | Calculated CMC, Outer Points [2]: 0.0111 M | Calculated CMC [1]: 0.0166 M

N=C(NCCCCCCNC(=N)NC(=N)Nc1ccc(Cl)cc1)NC(=N)Nc1ccc(Cl)cc1.O=C(O)[C@H](O)[C@@H](O)[C@H](O)[C@H](O)CO.O=C(O)[C@H](O)[C@@H](O)[C@H](O)[C@H](O)CO [RM12A, Chlorhexidine digluconate]
Calculated CMC, All Points [2]: 0.0133 M | Calculated CMC, Average [2]: 0.0126 M | Calculated CMC, Inner Points [2]: 0.0128 M | Calculated CMC, Outer Points [2]: 0.0118 M | Calculated CMC [1]: 0.0168 M

N=C(NCCCCCCNC(=N)NC(=N)Nc1ccc(Cl)cc1)NC(=N)Nc1ccc(Cl)cc1.O=C(O)[C@H](O)[C@@H](O)[C@H](O)[C@H](O)CO.O=C(O)[C@H](O)[C@@H](O)[C@H](O)[C@H](O)CO [RM12C, Chlorhexidine digluconate]
Calculated CMC, All Points [2]: 0.0133 M | Calculated CMC, Average [2]: 0.0131 M | Calculated CMC, Inner Points [2]: 0.0143 M | Calculated CMC, Outer Points [2]: 0.0116 M | Calculated CMC [1]: 0.0195 M

N=C(NCCCCCCNC(=N)NC(=N)Nc1ccc(Cl)cc1)NC(=N)Nc1ccc(Cl)cc1.O=C(O)C(O)C(O)C(O)C(O)C(O)CO.O=C(O)C(O)C(O)C(O)C(O)C(O)CO [RM14A, Chlorhexidine di-β73-glucoheptonate]
Calculated CMC, All Points [2]: 0.0130 M | Calculated CMC, Average [2]: 0.0126 M | Calculated CMC, Inner Points [2]: 0.0135 M | Calculated CMC, Outer Points [2]: 0.0113 M | Calculated CMC [1]: 0.0168 M

N=C(NCCCCCCNC(=N)NC(=N)Nc1ccc(Cl)cc1)NC(=N)Nc1ccc(Cl)cc1.O=C(O)C(O)C(O)C(O)C(O)C(O)CO.O=C(O)C(O)C(O)C(O)C(O)C(O)CO [RM13B, Chlorhexidine di-α-glucoheptonate]
Calculated CMC, All Points [2]: 0.0132 M | Calculated CMC, Average [2]: 0.0126 M | Calculated CMC, Inner Points [2]: 0.0131 M | Calculated CMC, Outer Points [2]: 0.0116 M | Calculated CMC [1]: 0.0167 M

N=C(NCCCCCCNC(=N)NC(=N)Nc1ccc(Cl)cc1)NC(=N)Nc1ccc(Cl)cc1.O=C(O)C(O)C(O)C(O)C(O)C(O)CO.O=C(O)C(O)C(O)C(O)C(O)C(O)CO [RM15A, Chlorhexidine di-β81-glucoheptonate]
Calculated CMC, All Points [2]: 0.0133 M | Calculated CMC, Average [2]: 0.0133 M | Calculated CMC, Inner Points [2]: 0.0154 M | Calculated CMC, Outer Points [2]: 0.0113 M | Calculated CMC [1]: 0.0173 M

benzalkonium chloride (C12-C16) [Sample C]
Log Reduction (Escherichia coli; 0.10%): 3.01 | Log Reduction (Escherichia coli; 0.25%): 3.29 | Log Reduction (Escherichia coli; 0.50%): 3.52 | log reduction (Escherichia coli; 0.10%): 4.59 | log reduction (Escherichia coli; 0.25%): 5.07 | log reduction (Escherichia coli; 0.50%): 5.07 | Log Reduction (Salmonella abony; 0.10%): 3.04 | Log Reduction (Salmonella abony; 0.25%): 3.34 | Log Reduction (Salmonella abony; 0.50%): 3.39 | log reduction (Salmonella abony; 0.10%): 4.44 | log reduction (Salmonella abony; 0.25%): 4.50 | log reduction (Salmonella abony; 0.50%): 4.50 | Log Reduction (Listeria monocytogenes; 0.10%): 3.72 | Log Reduction (Listeria monocytogenes; 0.25%): 3.87 | Log Reduction (Listeria monocytogenes; 0.50%): 3.99 | log reduction (Listeria monocytogenes; 0.10%): 5.60 | log reduction (Listeria monocytogenes; 0.25%): 5.99 | log reduction (Listeria monocytogenes; 0.50%): 6.02 | Log Reduction (Candida albicans; 0.10%): 4.18 | Log Reduction (Candida albicans; 0.25%): 4.35 | Log Reduction (Candida albicans; 0.50%): 4.56 | log reduction (Candida albicans; 0.10%): 5.95 | log reduction (Candida albicans; 0.25%): 6.35 | log reduction (Candida albicans; 0.50%): 6.43 | Log Reduction (Staphylococcus aureus; 0.10%): 3.89 | Log Reduction (Staphylococcus aureus; 0.25%): 4.19 | Log Reduction (Staphylococcus aureus; 0.50%): 4.37 | log reduction (Staphylococcus aureus; 0.10%): 5.86 | log reduction (Staphylococcus aureus; 0.25%): 6.07 | log reduction (Staphylococcus aureus; 0.50%): 5.05 | Log Reduction ([3]; 0.10%): 3.39 | Log Reduction ([3]; 0.25%): 3.50 | Log Reduction ([3]; 0.50%): 3.65 | log reduction ([3]; 0.10%): 4.79 | log reduction ([3]; 0.25%): 5.05 | log reduction ([3]; 0.50%): 5.05 | Log Reduction, Average, all microbes ([4]; 0.10%): 3.54 | Log Reduction, Average, all microbes ([4]; 0.25%): 3.76 | Log Reduction, Average, all microbes ([4]; 0.50%): 3.91 | log reduction, Average, all microbes ([4]; 0.10%): 5.21 | log reduction, Average, all microbes ([4]; 0.25%): 5.51 | log reduction, Average, all microbes ([4]; 0.50%): 5.35
